Earlier results, collected in patent publication US6432967B1 (Mayo Foundation for Medical Education & Research, priority 1995, dated 2002).

Settings: in vivo

Nc1ccc(O)c(C(=O)O)c1 [5-ASA, 5-aminosalicylate]
fecal excretion: approximately 25%
